These results are taken from paper PMC11195807, “Development of a multi-targeted chemotherapeutic approach based on G-quadruplex stabilisation and carbonic anhydrase inhibition” (Journal of Enzyme Inhibition and Medicinal Chemistry, 2024).

One may read the melting point as the temperature, or range, at which the solid turns liquid. As usually defined, the IC50 is the concentration needed to halve the response being measured.

Where a name gives a salt, the structure may show the parent alone.

The test system of data set [1] is c-Kit1. Nature of the data set: CD melting experiments, c-Kit1 GQ. The format is binding. The note with it: 2 molar equiv compound, T1/2 of DNA alone 55.0 °C. An excerpt:
(§1) The 21 synthesised MTDLs were screened for their ability to bind to and stabilise DNA GQ-forming sequences, compared to berberine, by CD experiments. Indeed, circular dichroism has shown to be outstandingly useful and informative for noncanonical nucleic acid secondary structures. For this purpose, a G-rich 23-nucleotide truncation (23-nt) of the human telomeric sequence (Tel23) and two G-rich motifs from the promoter regions of c-KIT (c-Kit1) and c-MYC (c-Myc) oncogenes were employed. First, the overall topology adopted by each DNA sequence in K^+-containing buffer was verified by CD spectra. […] GQ conformation (Figure S1, Supporting Information). On the other hand, c-Kit1 and c-Myc sequences adopted a parallel GQ conformation, showing a distinctive positive band at around 260 nm and a negative one at ∼240 nm in their CD spectra (Figures S2 and S3, Supporting Information).
(§2) Afterwards, the GQ-stabilising properties of the molecules were assessed by CD melting experiments, measuring the differences in the apparent melting temperatures of the DNA in the presence and absence of compounds (ΔT1/2) (Figures S4–S6 and Table S2, Supporting Information). […] This could be explained by considering the higher accessibility of the external G-tetrads in the case of parallel GQs compared to the hybrid one[52], which would allow the additional CAI moiety of conjugated compounds to be better accommodated in the binding site. […] . […] .

Data set [2] deals with Hairpin. The data set is described as follows: CD melting experiments, hairpin DNA duplex. The conditions noted are these: 2 molar equiv compound, T1/2 of DNA alone 66.0 °C.
In data set [3] the test system is HeLa cells. The data set is described as follows: MTT assay, HeLa cells in normoxia. It is filed as cell-based. The note with it: 48 h. An excerpt: Combining the results on carbonic anhydrase inhibition and GQ thermal stabilisation, we selected the sulphonamides S-2,0, S-4,0, S-5,0 and the coumarins C-3,2, C-4,2, C-5,2 as the most promising MTDLs to be further investigated, since able to both efficiently suppress the activity of the hCAs IX/XII and stabilise GQ structures, in vitro. Moreover, given that crystals suitable for X-ray diffraction analyses had been successfully obtained for the human telomeric DNA GQ in complex with S-3,2, we also included such sulphonamide derivative in the subsequent studies. Thus, we assessed the cytotoxicity of the selected MTDLs on CA IX-positive HeLa cells, using the MTT assay.
HeLa cells were grown in Dulbecco’s Modified Eagle’s Medium supplemented with 10% FBS, 100 U/mL penicillin, and 100 μg/mL streptomycin, at 37 °C, in a 5% CO2/95% air atmosphere. Cells were sub-cultured at 90% confluence, in the split ratio 1:8, every 3–5 days. The MTDLs used in this study, as well as the CAIs S and C, were dissolved in DMSO at 40 mM (for the sulphonamides) or 10 mM (for the coumarins) concentration. As for berberine, a 50 mM stock solution in DMSO was prepared. Each tested compound was diluted in cell culture medium to the required concentration, immediately prior to use. As regards the experiments under hypoxic conditions, an 80 mM stock solution of CoCl2 was prepared in sterile distilled water and further diluted in medium to obtain the final desired concentrations.
For the MTT experiments in the presence of normal oxygen levels, HeLa cells were seeded in 96-well plates at a density of 15,000 cells per well (culture medium volume – 100 μL/well) and incubated at 37 °C, for 24 h. The medium was then removed, and HeLa were incubated, for 48 h, with fresh medium containing increasing concentrations of MTDLs, single-target-directed agents (berberine, S, and C) or vehicle (0.5% DMSO). The MTDL C-4,2 was also tested for 12 h. As for the co-treatments, cells were co-treated for 12 h with equimolar concentrations of berberine and C. As regards the MTT experiments under hypoxic conditions, HeLa cells were seeded in 96-well plates (8,000 cells per well) and incubated overnight, pre-treated with 50 μM cobalt (II) chloride hexahydrate (CoCl2) and then, for the following 12 h, either exposed to increasing concentrations of C-4,2 or vehicle (0.5% DMSO), or co-treated with equimolar concentrations of berberine and C. Each condition was assayed in triplicate. At the end of the treatments, 10 µL of MTT reagent were added to each well, at a final concentration of 0.5 mg/mL, and the plates were incubated at 37 °C for 4 h. To dissolve the resulting purple formazan crystals, 100 μL of the solubilisation solution were added into each well and the plates were allowed to stand overnight in the incubator (37 °C, 5% CO2/95% air). Finally, the optical density of the samples (at 570 nm) was measured on an ELx800 Absorbance Microplate Reader (BioTek Instruments, Inc., Winooski, VT, USA). The percentage (%) of cell survival for each condition was calculated by using the following equation: % cell survival=OD− OD0/ODCONTROL− OD0×100 where OD is the optical density of the sample, OD0 is the optical density of the background signal, and ODCONTROL is the optical density of the control sample (cells treated with vehicle, 0.5% DMSO). The concentration able to reduce by 50% the cellular viability (IC50) was calculated, for each investigated compound, using Prism 8.0.2 (GraphPad, San Diego, CA, USA) and plotting the percentage of cell survival versus the compound concentration (µM).
(In general: Formazan colour is commonly taken as a measure of viable cells.)

Data set [4] deals with c-Myc. Nature of the data set: CD melting experiments, c-Myc GQ. It is filed as binding. The note with it: 1 molar equiv compound, T1/2 of DNA alone 70.0 °C.
Text: as §1, §2

Data set [5] deals with Tel23. Nature of the data set: CD melting experiments, Tel23 GQ. It is filed as binding, human. The conditions noted are these: 2 molar equiv compound, T1/2 of DNA alone 53.5 °C.
Text: as §1, §2

As to `COc1ccc2cc3[n+](cc2c1OCCn1cc(-c2ccc(S(N)(=O)=O)cc2)nn1)CCc1cc2c(cc1-3)OCO2` (as salt: phosphate) [Compound 26, 10-Methoxy-9–(2-(4–(4-sulfamoylphenyl)-1H-1,2,3-triazol-1-yl)ethoxy)-5,6-dihydro-[1,3]dioxolo[4,5-g]isoquinolino[3,2-a]isoquinolin-7-ium hexafluorophosphate], the melting point is 212 to 215 °C.

Consider `COc1ccc2cc3[n+](cc2c1OCCn1cc(COc2ccc(S(N)(=O)=O)cc2)nn1)CCc1cc2c(cc1-3)OCO2` (as salt: phosphate) [Compound 27, 10-Methoxy-9–(2-(4-((4-sulfamoylphenoxy)methyl)-1H-1,2,3-triazol-1-yl)ethoxy)-5,6-dihydro-[1,3]dioxolo[4,5-g]isoquinolino[3,2-a]isoquinolin-7-ium hexafluorophosphate], for which the melting point was 183 to 185 °C.

Compound `COc1ccc2cc3[n+](cc2c1OCCCn1cc(-c2ccc(S(N)(=O)=O)cc2)nn1)CCc1cc2c(cc1-3)OCO2` (as salt: phosphate) [Compound 28, 10-Methoxy-9–(3-(4–(4-sulfamoylphenyl)-1H-1,2,3-triazol-1-yl)propoxy)-5,6-dihydro-[1,3]dioxolo[4,5-g]isoquinolino[3,2-a]isoquinolin-7-ium hexafluorophosphate] yielded a melting point of 205 to 208 °C.

`COc1ccc2cc3[n+](cc2c1OCCCn1cc(COc2ccc(S(N)(=O)=O)cc2)nn1)CCc1cc2c(cc1-3)OCO2` (as salt: phosphate) [Compound 29, 10-Methoxy-9–(3-(4-((4-sulfamoylphenoxy)methyl)-1H-1,2,3-triazol-1-yl)propoxy)-5,6-dihydro-[1,3]dioxolo[4,5-g]isoquinolino[3,2-a]isoquinolin-7-ium hexafluorophosphate]: the melting point was 120 to 122 °C.

Compound `COc1ccc2cc3[n+](cc2c1OCCCCn1cc(COc2ccc(S(N)(=O)=O)cc2)nn1)CCc1cc2c(cc1-3)OCO2` (as salt: phosphate) [Compound 31, 10-Methoxy-9–(4-(4-((4-sulfamoylphenoxy)methyl)-1H-1,2,3-triazol-1-yl)butoxy)-5,6-dihydro-[1,3]dioxolo[4,5-g]isoquinolino[3,2-a]isoquinolin-7-ium hexafluorophosphate] registered a melting point of 165 to 168 °C.

With `COc1ccc2cc3[n+](cc2c1OCCCCCn1cc(-c2ccc(S(N)(=O)=O)cc2)nn1)CCc1cc2c(cc1-3)OCO2` (as salt: phosphate) [Compound 32, 10-Methoxy-9-((5–(4-(4-sulfamoylphenyl)-1H-1,2,3-triazol-1-yl)pentyl)oxy)-5,6-dihydro-[1,3]dioxolo[4,5-g]isoquinolino[3,2-a]isoquinolin-7-ium hexafluorophosphate], the melting point lay in the range of 200 to 202 °C.

With `COc1ccc2cc3[n+](cc2c1OCCCCCn1cc(COc2ccc(S(N)(=O)=O)cc2)nn1)CCc1cc2c(cc1-3)OCO2` (as salt: phosphate) [Compound 33, 10-Methoxy-9-((5–(4-((4-sulfamoylphenoxy)methyl)-1H-1,2,3-triazol-1-yl)pentyl)oxy)-5,6-dihydro-[1,3]dioxolo[4,5-g]isoquinolino[3,2-a]isoquinolin-7-ium hexafluorophosphate], the melting point was 168 to 171 °C.

On to `COc1ccc2cc3[n+](cc2c1OCCCn1cc(COc2ccc4ccc(=O)oc4c2)nn1)CCc1cc2c(cc1-3)OCO2` (as salt: phosphate) [Compound 34, 10-Methoxy-9–(3-(4-(((2-oxo-2H-chromen-7-yl)oxy)methyl)-1H-1,2,3-triazol-1-yl)propoxy)-5,6-dihydro-[1,3]dioxolo[4,5-g]isoquinolino[3,2-a]isoquinolin-7-ium hexafluorophosphate], for which the melting point turned out to be 140 °C.

Turning to `COc1ccc2cc3[n+](cc2c1OCCCn1cc(CCOc2ccc4ccc(=O)oc4c2)nn1)CCc1cc2c(cc1-3)OCO2` (as salt: phosphate) [Compound 35, 10-Methoxy-9–(3-(4–(2-((2-oxo-2H-chromen-7-yl)oxy)ethyl)-1H-1,2,3-triazol-1-yl)propoxy)-5,6-dihydro-[1,3]dioxolo[4,5-g]isoquinolino[3,2-a]isoquinolin-7-ium hexafluorophosphate], the melting point lay in the range of 130 to 131 °C.

In turn, `COc1ccc2cc3[n+](cc2c1OCCCCn1cc(CCOc2ccc4ccc(=O)oc4c2)nn1)CCc1cc2c(cc1-3)OCO2` (as salt: phosphate) [Compound 38, 10-Methoxy-9–(4-(4–(2-((2-oxo-2H-chromen-7-yl)oxy)ethyl)-1H-1,2,3-triazol-1-yl)butoxy)-5,6-dihydro-[1,3]dioxolo[4,5-g]isoquinolino[3,2-a]isoquinolin-7-ium hexafluorophosphate] returned a melting point of 185 to 186 °C.

`COc1ccc2cc3[n+](cc2c1OCc1cn(-c2cccc(S(N)(=O)=O)c2)nn1)CCc1cc2c(cc1-3)OCO2` (as salt: phosphate) [Compound 40, 10-Methoxy-9-((1–(3-sulfamoylphenyl)-1H-1,2,3-triazol-4-yl)methoxy)-5,6-dihydro-[1,3]dioxolo[4,5-g]isoquinolino[3,2-a]isoquinolin-7-ium hexafluorophosphate] showed a melting point of 195 to 198 °C.

Take `COc1ccc2cc3[n+](cc2c1OCc1cn(CCCOc2ccc4ccc(=O)oc4c2)nn1)CCc1cc2c(cc1-3)OCO2` (as salt: phosphate) [Compound 42, 10-Methoxy-9-((1–(3-((2-oxo-2H-chromen-7-yl)oxy)propyl)-1H-1,2,3-triazol-4-yl)methoxy)-5,6-dihydro-[1,3]dioxolo[4,5-g]isoquinolino[3,2-a]isoquinolin-7-ium hexafluorophosphate]: the melting point lay within 117 to 118 °C.

For the compound `COc1ccc2cc3[n+](cc2c1OC)CCc1cc2c(cc1-3)OCO2` [Berberine, berberine, reference compound], the “ΔT1/2 c-Kit1” value in data set [1] worked out at 13.0 °C. For the same compound, the “ΔT1/2 Hairpin” value in data set [2] was “+0.2 °C”. Besides, the “effect on HeLa cell viability (in words)” value in data set [3] (increasing concentrations) is on record as “good dose-dependent cytotoxic effect”. In addition, the IC50 in data set [3] (Homo sapiens, normoxia, read-out: IC50 (50% of cell viability reduction), MTT assay) came out at 75 µM. In addition, in data set [4], the “ΔT1/2 c-Myc” value amounted to 12.0 °C. In addition, in data set [5], the “ΔT1/2 Tel23” value is 9.5 °C.
